Data on 20 molecules can be found in US7601850B2, “Phenyl-thiophene type vitamin D receptor modulators” (Eli Lilly and Company, priority 2002, dated 2009).

Where two headings read alike, the source gives them in different places. Some results are limits rather than exact numbers.

The term EC50 denotes the concentration that produces a half-maximal response. One may read the IC50 as the midpoint of a concentration-inhibition curve.

Data set [1] relates to rat osteocalcin promoter. Kind of data set: OCN (osteocalcin) promoter assay in RG-15 (ROS 17/2.8) cells. The format is cell-based. Summed up:
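Rat osteoblast-like RG-15 (ROS 17/2.8) cells stably carry the rat osteocalcin promoter fused to luciferase. They were treated with compounds for 48 h in medium with 2% FBS and 0.01% DMSO. EC50 was derived from luciferase activity in cell lysates.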

The nature of data set [2]: Mouse hypercalcemia assay (six day, serum ionized calcium). Type of data set: in vivo. The protocol: 5. The Mouse Hypercalcemia test is described in the “Assay” section of the Description, infra.
4. The Mouse Hypercalcemia Assay
The Mouse Hypercalcemia Assay is a six day hypercalcemia test for toxicity and selectivity. Acceptable test results are levels greater than 300 μg/kg/day. Preferred assay results are levels greater than 1000 μg/kg/day.
(4) Materials and Method for The Mouse Hypercalcemia Assay:
Weanling, virus-antibody-free, five to six weeks old female DBF mice (Harlan, Indianapolis, Ind.) are used for all the studies. Animals are allowed to acclimate to local vivarium conditions for 2 days. […] The animals then are divided into groups with 4-5 mice per group. Different doses of test compounds prepared in 10% Ethanol and 90% sesame oil are administered to mice orally via gavage for 6 days. 1α-25(OH)2D3 0.5 μg/kg/d was also given to one group of mice as the positive control. Serum ionized calcium is evaluated at 6 hours after the last dosing under isoflurane anesthesia by Ciba-Corning Ca++/PH Analyzer, (Model 634, Chiron Diagnostics Corp., East Walpole, Mass.). Raw data of group differences is assessed by analysis of variance (ANOVA) using Fisher's protected least significant difference (PLSD) where the significance level was P<0.05.

The subject of data set [3] is KERtr cells. Kind of data set: Keratinocyte proliferation assay (BrdU incorporation). Type of data set: cell-based. The note with it: Homo sapiens, Keratinocyte, 72 h, KERtr human skin keratinocytes, 72 hr treatment, read-out: Kera. Prolif. IC50. The protocol: 6. The keratinocyte proliferation assay is described in the “Assay” section of the Description, infra.
5. The Keratinocyte Proliferation Assay
This Assay is indicative for the treatment of psoriasis.
(5) The Keratinocyte Proliferation Assay:
KERtr cells (Human skin keratinocyte transformed with a retrovirus vector, obtained from ATCC) were plated in 96-well flat-bottomed plates (3000 cells/well) in 100 µl keratinocyte serum free medium supplemented with bovine pituitary extract in the absence of EGF (Life Technologies, Rockville, Md.) and incubated at 37° C. for two days. The cells were treated with various concentrations of VDR ligands (ten-fold serial dilution from 10,000 nM to 0.1 nM in triplicate), dissolved in 100 µl keratinocyte serum free medium supplemented with bovine pituitary extract in the absence of EGF and incubated at 37° C. for 72 hr. […] Potency values (IC50) values were determined as the concentration (nM) of compound that elicited a half-maximal response.
Background: Dividing cells build labelled thymidine or BrdU into new DNA.

Take `CCCc1cc(C(CC)(CC)c2ccc(C(=O)N[C@@H](C)C(=O)O)s2)ccc1OCC(C)(O)C(C)(C)C` (single isomer, unassigned) [Ex. 114, d-3′-[4-(2-hydroxy-2,3,3-trimethylbutoxy)-3-n-propylphenyl]-3′-[5-(carboxy-1-ethylamino)carbonyl-thiophen-2-yl]pentane]: in data set [1] (Rattus norvegicus), the EC50 was determined as 0.28 nM. In addition, in data set [2], the “Mouse Hypercal” value was <300 µg/kg/day.

As to `CCC(CC)(c1ccc(OCC(O)C(C)(C)C)c(C)c1)c1cc(C)c(C(=O)Nc2nnn[nH]2)s1` (single isomer, unassigned) [Ex. 36, 3′-[4-(2-hydroxy-3,3-dimethylbutoxy)-3-methylphenyl]-3′-[5-(tetrazol-5-yl-aminocarbonyl)-4-methylthiophen-2-yl]pentane], the EC50 in data set [1] was 67.9 nM. Besides, the “Mouse Hypercal” value in data set [2] was 2000 µg/kg/day.

`CCC(CC)(c1ccc(OCC(O)CO)c(C)c1)c1ccc(OCC(O)C(C)(C)C)c(C)c1` (centres unmarked) [BB, 3-(4-{1-Ethyl-1-[4-(2-hydroxy-3,3-dimethyl-butoxy)-3-methyl-phenyl]-10 propyl}-2-methyl-phenoxy)-propane-1,2-diol, reference compound]: the “Mouse Hypercal μg/Kg/d” value in data set [2] was “>=20 μg/Kg/d”.

As to `CCC(CC)(c1ccc(OCC(C)(O)C(C)(C)C)c(C)c1)c1ccc(C(=O)O)s1` (centres unmarked) [Ex. 103, 3′-[4-(2-hydroxy-2,3,3-trimethylbutoxy)-3-methylphenyl]-3′-[5-carboxy-thiophen-2-yl]pentane], the half-maximal effective concentration (EC50) in data set [1] (Rattus norvegicus) is 102 nM. Besides, the “Mouse Hypercal” value in data set [2] is 3000 µg/kg/day.

Take `CCCc1cc(C(CC)(CC)c2ccc(C(=O)O)s2)ccc1OCC(O)C(C)(C)C` (single isomer, unassigned) [Ex. 94, 3′-[4-(2-hydroxy-3,3-dimethylbutoxy)-3-n-propylphenyl]-3′-[5-carboxy-thiophen-2-yl]pentane]: the EC50 in data set [1] was found to be 4.05 nM. Besides, in data set [2], the “Mouse Hypercal” value is 1000 µg/kg/day.

Turning to `CCC(CC)(c1ccc(OCC(O)C(C)(C)C)c(C)c1)c1cc(C)c(C(=O)N(C)OC)s1` (single isomer, unassigned) [Ex. 44, 5-{1-Ethyl-1-[4-(2-hydroxy-3,3-dimethyl-butyoxy)-3-methyl-phenyl]-propyl}-3methyl-thiophene-2-carboxylic acid methoxy-methyl-amide], in data set [1], the EC50 was determined as 30.4 nM. Further, the “Mouse Hypercal” value in data set [2] is 1000 µg/kg/day.

Turning to `CCc1cc(C(CC)(CC)c2ccc(C(=O)O)s2)ccc1OCC(O)C(C)(C)C` (centres unmarked) [Ex. 99, 3′-[4-(2-hydroxy-3,3-dimethylbutoxy)-3-ethylphenyl]-3′-[5-carboxy-thiophen-2-yl]pentane], the EC50 in data set [1] (Rattus norvegicus) worked out at 38.1 nM. In addition, the “Mouse Hypercal” value in data set [2] is >1000 µg/kg/day.

Turning to `CCC(CC)(c1ccc(OCC(O)C(C)(C)C)c(C(C)C)c1)c1ccc(C(=O)O)s1` (centres unmarked) [Ex. 92, 3′-[4-(2-Hydroxy-3,3-dimethylbutoxy)-3-(1-methylethyl)phenyl]-3′-[5-carboxy-thiophen-2-yl]pentane], in data set [1] (Rattus norvegicus), the EC50 worked out at 75.3 nM. In data set [2], the “Mouse Hypercal” value is 1000 µg/kg/day.

As for `CCC(CC)(c1ccc(OCC(=O)O)c(C)c1)c1cc(C)c(CCC(O)C(C)(C)C)s1` (single isomer, unassigned) [Ex. 33A, 3′-[5-(3-hydroxy-4,4-dimethylpentyl)-4-methylthiophen-2-yl]-3′-[4-(carboxylmethoxy)-3-methylphenyl]pentane], the EC50 in data set [1] stood at 43.5 nM. Moreover, the “Mouse Hypercal” value in data set [2] is >9000 µg/kg/day.

For `CCC(CC)(c1ccc(OCC(=O)Nc2nnn[nH]2)c(C)c1)c1cc(C)c(CCC(O)C(C)(C)C)s1` (single isomer, unassigned) [Ex. 34, 3′-[5-(3-hydroxy-4,4-dimethylpentyl)-4-methylthiophen-2-yl]-3-[4-(tetrazol-5-yl-aminocarbonylmethoxy)-3-methylphenyl]pentane], the EC50 in data set [1] amounted to 96.8 nM. Further, the “Mouse Hypercal” value in data set [2] was 3000 µg/kg/day.

Take `CCC(CC)(c1ccc(OCC(O)C(C)(C)C)c(C(C)C)c1)c1ccc(C(=O)O)s1` (single isomer, unassigned) [Ex. 98, 3′-[4-(2-hydroxy-3,3-dimethylbutoxy)-3-i-propylphenyl]-3′-[5-carboxy-thiophen-2-yl]pentane]: the EC50 in data set [1] stood at 15.8 nM. Also, in data set [2], the “Mouse Hypercal” value is 4000 µg/kg/day.

In the case of `CCC(CC)(c1ccc(OCC(O)C(C)(C)C)c(C)c1)c1cc(C)c(C(=O)N(C)OC)s1` (single isomer, unassigned) [Ex. 43, 5-{1-Ethyl-1-[4-(2-hydroxy-3,3-dimethyl-butyoxy)-3-methyl-phenyl]-propyl}-3methyl-thiophene-2-carboxylic acid methoxy-methyl-amide], the EC50 in data set [1] (Rattus norvegicus) came out at 19.7 nM. Besides, in data set [2], the “Mouse Hypercal” value is 1000 µg/kg/day.

Regarding `CCC(CC)(c1ccc(OCC(C)(O)C(C)(C)C)c(OC)c1)c1ccc(C(=O)NC(C)C(=O)O)s1` (single isomer, unassigned) [Ex. 116, d-3′-[4-(2-hydroxy-2,3,3-trimethylbutoxy)-3-methoxyphenyl]-3′-[5-(carboxy-1-ethylamino)carbonyl-thiophen-2-yl]pentane], in data set [1] (Rattus norvegicus), the EC50 was determined as 16.9 nM. For the same molecule, the “Mouse Hypercal” value in data set [2] is >3000 µg/kg/day.

Consider `CCC(CC)(c1ccc(OCC(=O)C(C)(C)C)c(C)c1)c1cc(C)c(C(=O)N(C)OC)s1` [Ex. 45, 5-{1-[4-(3,3-dimethyl-2-oxo-butyoxy)-3-methyl-phenyl]-1-ethyl-propyl}-3methyl-thiophene-2-carboxylic acid methoxy-methyl-amide], for which the EC50 in data set [1] (Rattus norvegicus) was 41 nM. In addition, in data set [2], the “Mouse Hypercal” value is >1500 µg/kg/day.

Turning to `CCC(CC)(c1ccc(OCC(C)(O)C(C)(C)C)c(C)c1)c1ccc(C(=O)O)s1` (single isomer, unassigned) [Ex. 104, 3′-[4-(2-hydroxy-2,3,3-trimethylbutoxy)-3-methylphenyl]-3′-[5-carboxy-thiophen-2-yl]pentane], the EC50 in data set [1] is 90.9 nM. In data set [2], the “Mouse Hypercal” value is 1000 µg/kg/day.

Regarding `CCC(CC)(c1ccc(CCC(O)C(C)(C)C)c(C)c1)c1cc(C)c(S(=O)(=O)NCC(=O)O)s1` (centres unmarked) [Ex. 179, (5-{1-Ethyl-1-[4-(3-hydroxy-4,4-dimethyl-pentyl)-3-methyl-phenyl]-propyl}-3-methyl-thiophene-2-sulfonylamino)-acetic acid], in data set [1] (Rattus norvegicus), the EC50 came out at 27.9 nM. The 50% inhibitory concentration (IC50) in data set [3] turned out to be 221 nM.

With `CCC(CC)(c1ccc(OCC(=O)C(C)(C)C)c(C)c1)c1cc(C)c(C(=O)NCC(=O)O)s1` [Ex. 50], the concentration giving a half-maximal response (EC50) in data set [1] (Rattus norvegicus) was 21.6 nM. In data set [2], the “Mouse Hypercal” value was >3000 µg/kg/day.

For `CCC(CC)(c1ccc(OCC(=O)C(C)(C)C)c(C)c1)c1cc(C)c(S(=O)(=O)N(C)CCC(=O)O)s1` [Ex. 145], the EC50 in data set [1] (Rattus norvegicus) amounted to 222 nM. The IC50 in data set [3] was determined as 702 nM.

Consider `CCC(CC)(c1ccc(OCC(O)C(C)(C)C)c(C)c1)c1ccc(C(=O)O)s1` (single isomer, unassigned) [Ex. 89, 3′-[4-(2-hydroxy-3,3-dimethylbutoxy)-3-methylphenyl]-3′-[5-carboxy-thiophen-2-yl]pentane], for which, in data set [1] (Rattus norvegicus), the EC50 was 314 nM. In addition, the IC50 in data set [3] stood at 105 nM.

For `CCC(CC)(c1ccc(OCC(=O)C(C)(C)C)c(C)c1)c1ccc(OC[C@H](O)C(C)(C)C)c(C)c1` [EE, reference compound], the “Mouse Hypercal” value in data set [2] is 1000 µg/kg/day.
